ChEMBL document CHEMBL5352469, “Solubility-driven optimization of benzothiopyranone salts leading to a preclinical candidate with improved pharmacokinetic properties and activity against Mycobacterium tuberculosis” (Eur J Med Chem, 2023)
≈ marks a conversion by molar mass, not a printed value.

Experiments:
[1] = Aqueous solubility of compound by HPLC-PDA method; assay type: physicochemical; details: buffer; read-out: solubility
[2] = Apparent permeability across apical to basolateral side in human Caco-2 cells incubated for 21 days; assay type: ADME, cell-based; details: time 21 day
[3] = Apparent permeability across basolateral to apical side in human Caco-2 cells incubated for 21 days; assay type: ADME, cell-based; details: time 21 day
[4] = Efflux ratio of apparent permeability across basolateral to apical side over apical to basolateral side in human Caco-2 cells; assay type: ADME, cell-based
[5] = Elimination half life in Balb/c mouse at 50 mg/kg, po measured upto 24 hrs by LC/MS/MS analysis; assay type: ADME, organism-based; details: in vivo, read-out: beta t1/2 (converted)
[6] = Elimination half life in Balb/c mouse at 5 mg/kg, iv measured upto 24 hrs by LC/MS/MS analysis; assay type: ADME, organism-based; details: in vivo, read-out: beta t1/2 (converted)
[7] = Tmax in Balb/c mouse at 50 mg/kg, po measured upto 24 hrs by LC/MS/MS analysis; assay type: ADME, organism-based; details: in vivo
[8] = Cmax in Balb/c mouse at 50 mg/kg, po measured upto 24 hrs by LC/MS/MS analysis; assay type: ADME, organism-based; parameters: time < 24 hrs, dose 50 mg/kg, route po; details: in vivo
[9] = Cmax in Balb/c mouse at 5 mg/kg, iv measured upto 24 hrs by LC/MS/MS analysis; assay type: ADME, organism-based; parameters: dose 5 mg/kg, time < 24 hrs, route iv; details: in vivo
[10] = AUC (0 to t) in Balb/c mouse at 50 mg/kg, po measured upto 24 hrs by LC/MS/MS analysis; assay type: ADME, organism-based; parameters: dose 50 mg/kg, time < 24 hrs, route po; details: in vivo; for AUC(0-t) at 24 h: Balb/c
[11] = AUC (0 to t) in Balb/c mouse at 5 mg/kg, iv measured upto 24 hrs by LC/MS/MS analysis; assay type: ADME, organism-based; parameters: time < 24 hrs, dose 5 mg/kg, route iv; details: in vivo; for AUC(0-t) at 24 h: Balb/c
[12] = Oral bioavailability in Balb/c mouse at 50 mg/kg measured upto 24 hrs by LC/MS/MS analysis; assay type: ADME, organism-based; details: in vivo; for bioavailability: Balb/c
[13] = Elimination half life in Sprague-Dawley rat at 50 mg/kg, po measured upto 24 hrs by LC/MS/MS analysis; assay type: ADME, organism-based; details: in vivo, read-out: beta t1/2 (converted)
[14] = Elimination half life in Sprague-Dawley rat at 5 mg/kg, iv measured upto 24 hrs by LC/MS/MS analysis; assay type: ADME, organism-based; details: in vivo, read-out: beta t1/2 (converted)
[15] = Tmax in Sprague-Dawley rat at 50 mg/kg, po measured upto 24 hrs by LC/MS/MS analysis; assay type: ADME, organism-based; details: in vivo
[16] = Cmax in Sprague-Dawley rat at 50 mg/kg, po measured upto 24 hrs by LC/MS/MS analysis; assay type: ADME, organism-based; parameters: time < 24 hrs, dose 50 mg/kg, route po; details: in vivo
[17] = Cmax in Sprague-Dawley rat at 5 mg/kg, iv measured upto 24 hrs by LC/MS/MS analysis; assay type: ADME, organism-based; parameters: time < 24 hrs, dose 5 mg/kg, route iv; details: in vivo
[18] = AUC (0 to t) in Sprague-Dawley rat at 50 mg/kg, po measured upto 24 hrs by LC/MS/MS analysis; assay type: ADME, organism-based; parameters: dose 50 mg/kg, time < 24 hrs, route po; details: in vivo
[19] = AUC (0 to t) in Sprague-Dawley rat at 5 mg/kg, iv measured upto 24 hrs by LC/MS/MS analysis; assay type: ADME, organism-based; parameters: time < 24 hrs, dose 5 mg/kg, route iv; details: in vivo
[20] = AUC (0 to infinity) in Sprague-Dawley rat at 50 mg/kg, po measured upto 24 hrs by LC/MS/MS analysis; assay type: ADME, organism-based; parameters: time < 24 hrs, dose 50 mg/kg, route po; details: in vivo
[21] = AUC (0 to infinity) in Sprague-Dawley rat at 5 mg/kg, iv measured upto 24 hrs by LC/MS/MS analysis; assay type: ADME, organism-based; parameters: time < 24 hrs, dose 5 mg/kg, route iv; details: in vivo
[22] = MRT (0 to infinity) in Sprague-Dawley rat at 50 mg/kg, po measured upto 24 hrs by LC/MS/MS analysis; assay type: ADME, organism-based; details: in vivo
[23] = MRT (0 to infinity) in Sprague-Dawley rat at 5 mg/kg, iv measured upto 24 hrs by LC/MS/MS analysis; assay type: ADME, organism-based; details: in vivo
[24] = Clearance in Sprague-Dawley rat at 5 mg/kg, iv measured upto 24 hrs by LC/MS/MS analysis; assay type: ADME, organism-based; details: in vivo
[25] = Oral bioavailability in Sprague-Dawley rat at 50 mg/kg measured upto 24 hrs by LC/MS/MS analysis; assay type: ADME, organism-based; details: in vivo
[26] = Chemical stability of the compound under 4500 +/- 500 lx light condition by measuring compound purity incubated for 10 days by HPLC-PDA method relative to initial purity; assay type: physicochemical; details: time 10 day; for Stability: 240 h
[27] = Chemical stability of the compound under 60 degree C high temperature by measuring compound purity incubated for 10 days by HPLC-PDA method analysis relative to initial purity; assay type: physicochemical; details: time 10 day; for Stability: 240 h
[28] = Chemical stability of the compound under 92.5% humidity by measuring compound purity incubated for 10 days by HPLC-PDA method relative to initial purity; assay type: physicochemical; details: time 10 day; for Stability: 240 h
[29] = Lipophilicity, log P of the compound in octanol/water incubated for 72 hrs under shaking condition by shake flask based HPLC-PDA method; assay type: physicochemical
[30] = Lipophilicity, log D of the compound in octanol/water at pH 2.0 incubated for 72 hrs under shaking condition by shake flask based HPLC-PDA method; assay type: physicochemical
[31] = Lipophilicity, log D of the compound in octanol/water at pH 4.0 incubated for 72 hrs under shaking condition by shake flask based HPLC-PDA method; assay type: physicochemical
[32] = Lipophilicity, log D of the compound in octanol/water at pH 6.8 incubated for 72 hrs under shaking condition by shake flask based HPLC-PDA method; assay type: physicochemical
[33] = Lipophilicity, log D of the compound in octanol/water at pH 7.6 incubated for 72 hrs under shaking condition by shake flask based HPLC-PDA method; assay type: physicochemical
[34] = tested on: Mycobacterium tuberculosis; test: Antibacterial activity against Mycobacterium tuberculosis H37Rv BALB/c mouse model assessed as reduction in CFU in lungs at 25 mg/kg via oral gavage for 30 days (reference value: 5.92 +/-0.29); assay type: functional; details: time 30 day
[35] = tested on: Mycobacterium tuberculosis; test: Antibacterial activity against Mycobacterium tuberculosis H37Rv BALB/c mouse model assessed as reduction in CFU in lungs at 50 mg/kg via oral gavage for 30 days (reference value: 5.92 +/-0.29); assay type: functional; details: time 30 day
[36] = tested on: Mycobacterium tuberculosis; test: Antibacterial activity against Mycobacterium tuberculosis H37Rv BALB/c mouse model assessed as reduction in CFU in lungs at 100 mg/kg via oral gavage for 30 days (reference value: 5.92 +/-0.29); assay type: functional; details: time 30 day
[37] = tested on: Mycobacterium tuberculosis; test: Antibacterial activity against Mycobacterium tuberculosis H37Rv BALB/c mouse model assessed as reduction in delta CFU in lungs at 25 mg/kg via oral gavage for 30 days; assay type: functional; details: time 30 day
[38] = tested on: Mycobacterium tuberculosis; test: Antibacterial activity against Mycobacterium tuberculosis H37Rv BALB/c mouse model assessed as reduction in delta CFU in lungs at 50 mg/kg via oral gavage for 30 days; assay type: functional; details: time 30 day
[39] = tested on: Mycobacterium tuberculosis; test: Antibacterial activity against Mycobacterium tuberculosis H37Rv BALB/c mouse model assessed as reduction in delta CFU in lungs at 100 mg/kg via oral gavage for 30 days; assay type: functional; details: time 30 day
[40] = tested on: Mycobacterium tuberculosis; test: Antibacterial activity against Mycobacterium tuberculosis H37Rv by microplate alamar blue assay; assay type: functional
[41] = tested on: Mycobacterium tuberculosis; test: Antibacterial activity against Mycobacterium tuberculosis H37Rv BALB/c mouse model assessed as reduction in CFU in lungs at 12.5 mg/kg via oral gavage for 30 days (reference value: 5.35 +/-0.17); assay type: functional; details: time 30 day
[42] = tested on: Mycobacterium tuberculosis; test: Antibacterial activity against Mycobacterium tuberculosis H37Rv BALB/c mouse model assessed as reduction in CFU in lungs at 25 mg/kg via oral gavage for 30 days (reference value: 5.35 +/-0.17); assay type: functional; details: time 30 day
[43] = tested on: Mycobacterium tuberculosis; test: Antibacterial activity against Mycobacterium tuberculosis H37Rv BALB/c mouse model assessed as reduction in delta CFU in lungs at 12.5 mg/kg via oral gavage for 30 days; assay type: functional; details: time 30 day

O=c1cc(N2CCN(CC3CCCCC3)CC2)sc2c([N+](=O)[O-])cc(C(F)(F)F)cc12
solubility [1]: 0.15 µg/mL (≈ 0.329 µM)
Papp A→B [2]: 11.8 ×10⁻⁶ cm/s
Papp B→A [3]: 0.69 ×10⁻⁶ cm/s
efflux ratio [4]: 0.1
half-life [5]: 435 min
half-life [6]: 392 min
Tmax [7]: 30 min
Cmax [8]: 588 ng/mL
Cmax [9]: 8240 ng/mL
AUCt ([10]; 24 h): 1581 ng·h/mL
AUCt ([11]; 24 h): 4954 ng·h/mL
F ([12]; po, 50 mg/kg, 24 h): 13.1%
half-life [13]: 230 min
half-life [14]: 496 min
Tmax [15]: 3.67 h
Cmax [16]: 109 ng/mL
Cmax [17]: 3560 ng/mL
AUC(0-t) at 24 h [18]: 741 ng·h/mL
AUC(0-t) at 24 h [19]: 1540 ng·h/mL
AUC(0-inf) [20]: 769 ng·h/mL
AUC(0-inf) [21]: 1580 ng·h/mL
MRT inf [22]: 5.94 h
MRT inf [23]: 2.99 h
clearance [24]: 53.8 mL/min/kg
bioavailability [25]: 4.87%
Stability [26]: 98.2%
Stability [27]: 100%
Stability [28]: 100%
logP ([29]; 72 h): 3.71
logD ([30]; pH 2, 72 h): 1.29
logD ([31]; pH 4, 72 h): 3.72
logD ([32]; pH 6.8, 72 h): > 4.3
logD ([33]; pH 7.6, 72 h): > 4.32
Activity [34]: 3.64 log10CFU
Activity [35]: 2.34 log10CFU
Activity [36]: 2.19 log10CFU
Activity [37]: 2.28 log10CFU
Activity [38]: 3.58 log10CFU
Activity [39]: 3.73 log10CFU

O=C(O)CC(O)(CC(=O)O)C(=O)O.O=c1cc(N2CCN(CC3CCCCC3)CC2)sc2c([N+](=O)[O-])cc(C(F)(F)F)cc12
solubility [1]: 143 µg/mL
Papp A→B [2]: 2.52 ×10⁻⁶ cm/s
Papp B→A [3]: 0.33 ×10⁻⁶ cm/s
efflux ratio [4]: 0.13
half-life [5]: 371 min
half-life [6]: 400 min
Tmax [7]: 30 min
Cmax [8]: 536 ng/mL
Cmax [9]: 3780 ng/mL
AUC(0-t) at 24 h [10]: 4440 ng·h/mL
AUC(0-t) at 24 h [11]: 2360 ng·h/mL
bioavailability [12]: 19.4%
Stability [26]: 91.3%
Stability [27]: 99.6%
Stability [28]: 99.4%

O=C(O)/C=C\C(=O)O.O=c1cc(N2CCN(CC3CCCCC3)CC2)sc2c([N+](=O)[O-])cc(C(F)(F)F)cc12
solubility [1]: 114 µg/mL
Papp A→B [2]: 3.1 ×10⁻⁶ cm/s
Papp B→A [3]: 0.25 ×10⁻⁶ cm/s
efflux ratio [4]: 0.1
half-life [5]: 359 min
half-life [6]: 397 min
Tmax [7]: 90 min
Cmax [8]: 776 ng/mL
Cmax [9]: 3090 ng/mL
AUC(0-t) at 24 h [10]: 7110 ng·h/mL
AUC(0-t) at 24 h [11]: 2570 ng·h/mL
bioavailability [12]: 28%
half-life [13]: 274 min
half-life [14]: 386 min
Tmax [15]: 3.33 h
Cmax [16]: 282 ng/mL
Cmax [17]: 3880 ng/mL
AUC(0-t) at 24 h [18]: 2130 ng·h/mL
AUC(0-t) at 24 h [19]: 1710 ng·h/mL
AUC(0-inf) [20]: 2180 ng·h/mL
AUC(0-inf) [21]: 1740 ng·h/mL
MRT inf [22]: 5.91 h
MRT inf [23]: 2.46 h
clearance [24]: 52.4 mL/min/kg
bioavailability [25]: 12.5%
remaining at 240 h ([26]; read-out: Stability): 100%
remaining at 240 h ([27]; read-out: Stability): 100%
remaining at 240 h ([28]; read-out: Stability): 100%
logP at 72 h [29]: 2.6
logD at 72 h ([30]; pH 2): 1.31
logD at 72 h ([31]; pH 4): 3.6
logD at 72 h ([32]; pH 6.8): > 4.24
logD at 72 h ([33]; pH 7.6): > 4.24
MIC [40]: < 0.016 µg/mL
Activity [41]: 4.6 log10CFU
Activity [42]: 2.12 log10CFU
Activity [43]: 0.75 log10CFU
Activity [37]: 3.23 log10CFU

O=C(O)C[C@H](O)C(=O)O.O=c1cc(N2CCN(CC3CCCCC3)CC2)sc2c([N+](=O)[O-])cc(C(F)(F)F)cc12
solubility [1]: 158 µg/mL
Papp A→B [2]: 7.78 ×10⁻⁶ cm/s
Papp B→A [3]: 0.28 ×10⁻⁶ cm/s
half-life [5]: 360 min
half-life [6]: 354 min
Tmax [7]: 60 min
Cmax [8]: 979 ng/mL
Cmax [9]: 3950 ng/mL
AUC(0-t) at 24 h [10]: 7280 ng·h/mL
AUC(0-t) at 24 h [11]: 2730 ng·h/mL
bioavailability [12]: 27.7%
Stability [26]: 90.6%
Stability [27]: 98.2%
Stability [28]: 98.3%
